biological target: GCN2 (Homo sapiens, UniProt Q9P2K8); assay: GCN2 enzymatic endpoint assay: phosphorylation of GFP-eIF2α measured by TR-FRET (Lanthascreen); assay type: biochemical; conditions: tested as described in Example 77; compound and/or hydrochloride, dihydrochloride or trifluoroacetic acid salt; read-out: IC 50 Activity
Summary of the method: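 Read-out is the TR-FRET ratio of acceptor signal at 520 nm to terbium donor at 495 nm, rising with antibody binding to phosphorylated GFP-eIF2α. Endpoint format: 2 μM ATP, 80 nM substrate, 90 minutes at room temperature, EDTA stop.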

GCN2, sequence (Q9P2K8 whole entry): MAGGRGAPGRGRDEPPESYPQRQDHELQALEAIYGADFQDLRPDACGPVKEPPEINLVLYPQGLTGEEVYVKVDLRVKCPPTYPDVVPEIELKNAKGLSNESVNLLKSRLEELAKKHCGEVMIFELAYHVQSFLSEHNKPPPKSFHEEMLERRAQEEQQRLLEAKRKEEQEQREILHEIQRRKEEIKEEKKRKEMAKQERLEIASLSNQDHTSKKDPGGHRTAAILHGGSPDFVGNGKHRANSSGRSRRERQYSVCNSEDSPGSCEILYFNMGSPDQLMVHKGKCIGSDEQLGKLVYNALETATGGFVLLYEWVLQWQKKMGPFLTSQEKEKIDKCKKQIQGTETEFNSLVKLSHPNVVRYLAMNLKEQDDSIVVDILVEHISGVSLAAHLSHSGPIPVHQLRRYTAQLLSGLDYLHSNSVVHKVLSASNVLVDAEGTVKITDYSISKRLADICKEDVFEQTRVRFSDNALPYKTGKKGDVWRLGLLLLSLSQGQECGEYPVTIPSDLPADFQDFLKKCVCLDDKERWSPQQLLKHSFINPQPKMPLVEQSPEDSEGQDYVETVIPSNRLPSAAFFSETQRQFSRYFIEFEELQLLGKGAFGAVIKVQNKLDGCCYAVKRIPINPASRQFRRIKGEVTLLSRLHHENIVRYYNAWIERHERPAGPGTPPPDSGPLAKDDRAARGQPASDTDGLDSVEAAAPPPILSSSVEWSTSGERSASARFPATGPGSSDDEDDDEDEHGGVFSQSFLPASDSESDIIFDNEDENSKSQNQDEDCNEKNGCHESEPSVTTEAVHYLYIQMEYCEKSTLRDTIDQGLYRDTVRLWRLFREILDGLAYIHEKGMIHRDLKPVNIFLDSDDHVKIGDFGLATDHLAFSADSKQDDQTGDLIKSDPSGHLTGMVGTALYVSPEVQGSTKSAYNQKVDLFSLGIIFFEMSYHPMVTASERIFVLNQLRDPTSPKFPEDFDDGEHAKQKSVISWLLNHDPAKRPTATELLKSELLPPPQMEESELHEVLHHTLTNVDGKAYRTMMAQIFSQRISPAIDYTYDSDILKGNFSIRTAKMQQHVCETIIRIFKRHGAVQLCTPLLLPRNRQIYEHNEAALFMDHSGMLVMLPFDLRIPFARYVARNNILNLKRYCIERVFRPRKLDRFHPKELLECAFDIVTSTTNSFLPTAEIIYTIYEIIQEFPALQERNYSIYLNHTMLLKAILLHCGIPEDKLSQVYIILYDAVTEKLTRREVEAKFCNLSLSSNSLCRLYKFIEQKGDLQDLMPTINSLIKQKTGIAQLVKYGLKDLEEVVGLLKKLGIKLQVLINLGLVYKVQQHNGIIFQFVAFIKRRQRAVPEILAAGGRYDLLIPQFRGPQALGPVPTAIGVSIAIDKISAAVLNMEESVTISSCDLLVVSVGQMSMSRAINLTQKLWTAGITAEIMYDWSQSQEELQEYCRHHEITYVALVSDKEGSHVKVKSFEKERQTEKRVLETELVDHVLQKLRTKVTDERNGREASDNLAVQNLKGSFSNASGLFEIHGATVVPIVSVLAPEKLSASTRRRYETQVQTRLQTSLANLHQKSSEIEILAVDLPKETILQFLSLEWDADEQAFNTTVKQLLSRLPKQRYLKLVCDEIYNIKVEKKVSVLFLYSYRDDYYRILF

IC50 [µM]	SMILES
0.025 to 0.2	CNC(=O)[C@]1(C)CC[C@@H](Nc2ncc3c(Br)nn(-c4ccc(-c5nnc(C)o5)nc4)c3n2)C1 [(1R,3R)-3-[[3-bromo-1-[6-(5-methyl-1,3,4-oxadiazol-2-yl)-3-pyridyl]pyrazolo [3,4-d]pyrimidin-6-yl]amino]-N,1-dimethyl-cyclopentanecarboxamide]
0.025 to 0.2	CNC(=O)[C@]1(C)CC[C@@H](Nc2ncc3c(Br)nn(-c4cc(C(C)(C)O)c5ncccc5c4)c3n2)C1 [(1R,3R)-3-[[3-bromo-1-[8-(1-hydroxy-1-methyl-ethyl)-6-quinolyl]pyrazolo[3,4-d]pyrimidin-6-yl]amino]-N,1-dimethyl-cyclopentanecarboxamide]
0.025 to 0.2	CNC(=O)[C@]1(C)CC[C@@H](Nc2ncc3c(Br)nn(-c4cc(C(C)O)c5nccnc5c4)c3n2)C1 (stereo partly drawn) [(1R,3R)-3-[[3-bromo-1-[8-(1-hydroxy-ethyl)quinoxalin-6-yl]pyrazolo[3,4-d]pyrimidin-6-yl]amino]-N,1-dimethyl-cyclopentanecarboxamide]
0.025 to 0.2	CNC(=O)[C@]1(C)CC[C@@H](Nc2ncc3c(Br)nn(-c4cc(C5=CCNC5)c5ncccc5c4)c3n2)C1 [(1R,3R)-3-[[3-bromo-1-[8-(2,5-dihydro-1H-pyrrol-3-yl)-6-quinolyl]pyrazolo [3,4-d]pyrimidin-6-yl]amino]-N,1-dimethyl-cyclopentanecarboxamide]
0.025 to 0.2	CNC(=O)[C@]1(C)CC[C@@H](Nc2ncc3c(Br)nn(-c4cc(CCC#N)c5c(c4)CCC(=O)N5C)c3n2)C1 [(1R,3R)-3-[[3-bromo-1-[8-(2-cyanoethyl)-1-methyl-2-oxo-3,4-dihydroquinolin-6-yl]pyrazolo[3,4-d]pyrimidin-6-yl]amino]-N,1-dimethyl-cyclopentanecarboxamide]
< 0.025	CNC(=O)[C@]1(C)CC[C@@H](Nc2ncc3c(Br)nn(-c4cc(CCC#N)c5ncccc5c4)c3n2)C1 [(1R,3R)-3-[[3-bromo-1-[8-(2-cyanoethyl)-6-quinolyl]pyrazolo[3,4-d]pyrimidin-6-yl]amino]-N,1-dimethyl-cyclopentane-carboxamide]
< 0.025	CNC(=O)[C@]1(C)CC[C@@H](Nc2ncc3c(Br)nn(-c4cc(C(C)CO)c5ncccc5c4)c3n2)C1 (stereo partly drawn) [(1R,3R)-3-[[3-bromo-1-[8-(2-hydroxy-1-methyl-ethyl)-6-quinolyl]pyrazolo[3,4-d]pyrimidin-6-yl]amino]-N,1-dimethyl-cyclopentanecarboxamide]
0.025 to 0.2	CNC(=O)[C@]1(CC(F)F)CC[C@@H](Nc2ncc3c(Br)nn(-c4cc(CC(C)(C)O)c5ncccc5c4)c3n2)C1 [(1R,3R)-3-[[3-bromo-1-[8-(2-hydroxy-2-methyl-propyl)-6-quinolyl]pyrazolo[3,4-d]pyrimidin-6-yl]amino]-1-(2,2-difluoroethyl)-N-methyl-cyclopentanecarboxamide]
0.025 to 0.2	CNC(=O)[C@]1(C)CC[C@@H](Nc2ncc3c(Br)nn(-c4cc(CC(C)(C)O)c5ncccc5c4)c3n2)C1 [(1R,3R)-3-[[3-bromo-1-[8-(2-hydroxy-2-methyl-propyl)-6-quinolyl]pyrazolo[3,4-d]pyrimidin-6-yl]amino]-N,1-dimethyl-cyclopentanecarboxamide]
0.025 to 0.2	CNC(=O)[C@]1(C)CC[C@@H](Nc2ncc3c(Br)nn(-c4cc(CCO)c5nc(C)ccc5c4)c3n2)C1 [(1R,3R)-3-[[3-bromo-1-[8-(2-hydroxy-ethyl)-2-methyl-6-quinolyl]pyrazolo[3,4-d]pyrimidin-6-yl]amino]-N,1-dimethyl-cyclopentanecarboxamide]
< 0.025	CNC(=O)[C@]1(C)CC[C@@H](Nc2ncc3c(Br)nn(-c4cc(CC(C)O)c5ncccc5c4)c3n2)C1 (stereo partly drawn) [(1R,3R)-3-[[3-bromo-1-[8-(2-hydroxy-propyl)-6-quinolyl]pyrazolo[3,4-d]pyrimidin-6-yl]amino]-N,1-dimethyl-cyclopentanecarboxamide]
0.025 to 0.2	CNC(=O)[C@]1(CC(F)F)CC[C@@H](Nc2ncc3c(Br)nn(-c4cc(CCO)c5ncccc5c4)c3n2)C1 [(1R,3R)-3-[[3-bromo-1-[8-(2-hydroxyethyl)-6-quinolyl]pyrazolo[3,4-d]pyrimidin-6-yl]amino]-1-(2,2-difluoroethyl)-N-methyl-cyclo-pentanecarboxamide]
< 0.025	CNC(=O)[C@]1(C)CC[C@@H](Nc2ncc3c(Br)nn(-c4cc(OCCOC)c5ncccc5c4)c3n2)C1 [(1R,3R)-3-[[3-bromo-1-[8-(2-methoxy-ethoxy)-6-quinolyl]pyrazolo[3,4-d]pyrimidin-6-yl]amino]-N,1-dimethyl-cyclopentanecarboxamide]
0.025 to 0.2	CNC(=O)[C@]1(C)CC[C@@H](Nc2ncc3c(Br)nn(-c4cc(CCN5CCOCC5)c5ncccc5c4)c3n2)C1 [(1R,3R)-3-[[3-bromo-1-[8-(2-morpholinoethyl)-6-quinolyl]pyrazolo [3,4-d]pyrimidin-6-yl]amino]-N,1-dimethyl-cyclopentanecarboxamide]
0.025 to 0.2	CNC(=O)[C@]1(C)CC[C@@H](Nc2ncc3c(Br)nn(-c4cc(N5CCNCC5=O)c5ncccc5c4)c3n2)C1 [(1R,3R)-3-[[3-bromo-1-[8-(2-oxopiperazin-1-yl)-6-quinolyl]pyrazolo[3,4-d]pyrimidin-6-yl]amino]-N,1-dimethyl-cyclopentane-carboxamide]
0.025 to 0.2	CNC(=O)[C@]1(C)CC[C@@H](Nc2ncc3c(Br)nn(-c4cc(CCCOC)c5c(c4)CCC(=O)N5C)c3n2)C1 [(1R,3R)-3-[[3-bromo-1-[8-(3-methoxy-propyl)-1-methyl-2-oxo-3,4-dihydro-quinolin-6-yl]pyrazolo[3,4-d]pyrimidin-6-yl]amino]-N,1-dimethyl-cyclopentane-carboxamide; 2,2,2-trifluoroacetic acid]
< 0.025	CNC(=O)[C@]1(C)CC[C@@H](Nc2ncc3c(Br)nn(-c4cc(CC#N)c5ncccc5c4)c3n2)C1 [(1R,3R)-3-[[3-bromo-1-[8-(cyanomethyl)-6-quinolyl]pyrazolo[3,4-d]pyrimidin-6-yl]amino]-N,1-dimethyl-cyclopentane-carboxamide]
0.025 to 0.2	CNC(=O)[C@]1(C)CC[C@@H](Nc2ncc3c(Br)nn(-c4cc(CC#N)c5nccnc5c4)c3n2)C1 [(1R,3R)-3-[[3-bromo-1-[8-(cyanomethyl)quinoxalin-6-yl]pyrazolo[3,4-d]pyrimidin-6-yl]amino]-N,1-dimethyl-cyclopentane-carboxamide]
< 0.025	CNC(=O)[C@]1(C)CC[C@@H](Nc2ncc3c(Br)nn(-c4cc(CO)c5ncccc5c4)c3n2)C1 [(1R,3R)-3-[[3-bromo-1-[8-(hydroxy-methyl)-6-quinolyl]pyrazolo[3,4-d]pyrimidin-6-yl]amino]-N,1-dimethyl-cyclopentanecarboxamide]
0.025 to 0.2	CNC(=O)[C@]1(C)CC[C@@H](Nc2ncc3c(Br)nn(-c4cc(CO)c5nccnc5c4)c3n2)C1 [(1R,3R)-3-[[3-bromo-1-[8-(hydroxymethyl)quinoxalin-6-yl]pyrazolo[3,4-d]pyrimidin-6-yl]amino]-N,1-dimethyl-cyclopentane-carboxamide]
0.025 to 0.2	CNC(=O)[C@]1(C)CC[C@@H](Nc2ncc3c(Br)nn(-c4cc(CN[S+](C)[O-])c5nccnc5c4)c3n2)C1 (stereo partly drawn) [(1R,3R)-3-[[3-bromo-1-[8-(methane-sulfinamidomethyl)quinoxalin-6-yl]pyrazolo[3,4-d]pyrimidin-6-yl]amino]-N,1-dimethyl-cyclopentane-carboxamide]

Source: patent US11046699B2, “Pyrazolo-pyrimidin-amino-cycloalkyl compounds and their therapeutic uses” (RAPT THERAPEUTICS, INC., priority 2018, dated 2021)
